Assay results: patent publication US8557830B2, “RAF kinase modulators and methods of use” (Amgen Inc., priority 2007, dated 2013)
Like-named read-outs stand apart in the source and are kept apart here.

Tests used:
V600E mutant B-raf = molecular target: T1, V600E mutant B-raf (Homo sapiens, UniProt P15056, V600E); assay: B-raf cell-based assay (ratio of phospho-ERK1/2 to total ERK1/2 in A375 cells); details: A375 human melanoma cells, P-ERK/total ERK
T1 construct: A375 cells, a human melanoma cell line having the V600E mutant B-raf is used in this assay; endogenous in cells; host or cells: A375 human melanoma cells
Method: A cell-based assay was optimized to assay the ability of compounds to inhibit B-raf activity in a whole cell context. […] The cell-based assay quantifies the ratio of phospho-ERK1/2 to total ERK1/2 and can thereby assay the cellular inhibition of B-raf kinase activity. A375 cells are plated into 96 well plates and grown to confluence. The cells are then changed into starve media (DMEM/0.1% BSA) for 60 minutes. Compounds in DMSO dose curves are then diluted in starve media and added to cells. […] After a 60 minute incubation the cells are fixed for 20 minutes at RT in 4% formaldehyde with 0.1% Triton X-100, protease and phosphatase inhibitors in PBS. The cells are washed four times in PBS then blocked for 60 minutes using a one to one mix of Odyssey blocking buffer (Li-Cor Biosciences, Inc) and PBS. Primary antibodies (rabbit anti-phospho p42/p44 MAPK (P-ERK1/2) from Cell Signaling Technology and mouse anti-ERK2 from Santa Cruz Biotechnology) are diluted in blocking buffer, added to the cells and incubated overnight at 4° C. The cells are then washed four times in PBS/0.1% Tween-20. Secondary antibodies (anti-mouse IRDye 800CW from Rockland, Inc and anti-rabbit AlexaFlour680 from Molecular Probes) are diluted in blocking buffer/0.5% Tween and incubated on cells for 60 minutes. After 4 washes in PBS/0.1% Tween-20 the microplate is scanned on an Odyssey Infrared Imager (Li-Cor Bioscience) which can read the signal given by the two secondary antibodies on their respective channels. The ratio of P-ERK/total ERK is determined and IC50s generated using Excel-XLfit software.

recombinant HuBraf V600E = recombinant HuBraf V600E (Homo sapiens, UniProt P15056, V600E); assay: B-raf Homogenous Time Resolved Fluorescent (HTRF) kinase assay; assay type: biochemical; details: human mutant B-raf V600E, substrate MEK1, 10 uM ATP, read-out: HTRF Enzyme assay Data IC50
Method: B-raf-Homogenous Time Resolved Fluorescent (HTRF) Kinase Assay
The final concentration of the kinase reaction buffer is 50 mM Tris-HCL pH 7.5, 10 mM MgCl2, 0.5% glucose, 0.5 mM DTT, 0.01% BSA. […] The detection reaction proceeds for one hour and is read on a RubyStar (BMG Labtech) counter. IC50s for the test compounds are generated using Excel-XLfit software.

T1 sequence (P15056 whole entry V600E): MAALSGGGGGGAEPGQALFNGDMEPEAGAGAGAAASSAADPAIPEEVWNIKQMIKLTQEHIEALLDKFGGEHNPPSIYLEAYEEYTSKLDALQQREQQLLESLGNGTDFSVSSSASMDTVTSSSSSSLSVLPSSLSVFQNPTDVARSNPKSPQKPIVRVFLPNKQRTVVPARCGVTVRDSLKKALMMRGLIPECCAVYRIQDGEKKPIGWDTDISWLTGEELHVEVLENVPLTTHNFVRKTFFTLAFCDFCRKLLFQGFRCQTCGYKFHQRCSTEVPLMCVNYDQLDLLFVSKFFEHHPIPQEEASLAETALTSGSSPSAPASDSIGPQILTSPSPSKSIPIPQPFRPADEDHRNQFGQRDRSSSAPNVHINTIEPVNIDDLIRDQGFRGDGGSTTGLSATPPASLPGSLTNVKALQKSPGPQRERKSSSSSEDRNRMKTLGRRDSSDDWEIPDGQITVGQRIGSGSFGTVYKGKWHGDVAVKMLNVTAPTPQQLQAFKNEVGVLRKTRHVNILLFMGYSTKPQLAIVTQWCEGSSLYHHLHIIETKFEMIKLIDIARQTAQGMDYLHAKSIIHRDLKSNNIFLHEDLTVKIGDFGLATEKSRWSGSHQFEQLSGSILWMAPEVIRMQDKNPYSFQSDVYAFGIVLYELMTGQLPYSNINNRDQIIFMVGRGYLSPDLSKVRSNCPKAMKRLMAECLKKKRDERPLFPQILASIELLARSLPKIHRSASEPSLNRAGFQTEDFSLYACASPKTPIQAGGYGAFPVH
Sequence of recombinant HuBraf V600E (P15056 whole entry V600E): as above

SMILES	IC50 (V600E mutant B-raf; Table II) [nM]	IC50 (recombinant HuBraf V600E; Table II) [nM]	IC50 (V600E mutant B-raf; Table I) [nM]	IC50 (recombinant HuBraf V600E; Table I) [nM]
C#Cc1cccc(Nc2ncnc3c(Nc4ncccc4-c4ncnc5[nH]cnc45)c(C)ccc23)c1 [Example 75, N-4-(3-ethynylphenyl)-7-methyl-N-8-(3-(9H-purin-6-yl)-2-pyridinyl)-4,8-quinazolinediamine]	28	3		
Cc1ccc2c(Nc3ccc(Cl)cc3)nccc2c1Nc1ncncc1-c1ncnc2[nH]cnc12 [Example 69, N-1-(4-chlorophenyl)-6-methyl-N-5-(5-(9H-purin-6-yl)-4-pyrimidinyl)-1,5-isoquinolinediamine]	4	2		
Cc1ccc2c(N[C@H](C)c3ccc(Cl)cc3)nccc2c1Nc1ncccc1-c1ncnc2[nH]cnc12 [Example 78, N-1-((1R)-1-(4-chlorophenyl)ethyl)-6-methyl-N-5-(3-(9H-purin-6-yl)-2-pyridinyl)-1,5-isoquinolinediamine]	33	33		
Cc1ccc2c(Nc3ccc4c(c3)OC(F)(F)O4)nccc2c1Nc1ncccc1-c1ncnc2[nH]ccc12 [Example 44, N-1-(2,2-difluoro-1,3-benzodioxol-5-yl)-6-methyl-N-5-(3-(7H-pyrrolo[2,3-d]pyrimidin-4-yl)-2-pyridinyl)-1,5-isoquinolinediamine]			25	13
Cc1ccc2c(Nc3ccc(C#N)cc3)ncnc2c1Nc1ncccc1-c1ncnc2[nH]ncc12 [Example 70, 4-((7-methyl-8-((3-(1H-pyrazolo[3,4-d]pyrimidin-4-yl)-2-pyridinyl)amino)-4-quinazolinyl)amino)benzonitrile]	86	5		
Cc1ccc(C(F)(F)F)cc1Nc1nccc2c(Nc3nc(Cl)ncc3-c3ncnc4[nH]ccc34)c(C)ccc12 [Example 55, N-5-(2-chloro-5-(7H-pyrrolo[2,3-d]pyrimidin-4-yl)-4-pyrimidinyl)-6-methyl-N-1-(2-methyl-5-(trifluoromethyl)phenyl)-1,5-isoquinolinediamine]			86	15
Cc1ccc2c(Nc3ccc(C#N)cc3)ncnc2c1Nc1ncccc1-c1ncnc2[nH]cnc12 [Example 61, 4-((7-methyl-8-((3-(9H-purin-6-yl)-2-pyridinyl)amino)-4-quinazolinyl)amino)benzonitrile]			103	2
Cc1ccc(OC(F)(F)F)cc1Nc1nccc2c(Nc3ncccc3-c3ncnc4[nH]ccc34)c(C)ccc12 [Example 41, 6-methyl-N-1-(2-methyl-5-((trifluoromethyl)oxy)phenyl)-N-5-(3-(7H-pyrrolo[2,3-d]pyrimidin-4-yl)-2-pyridinyl)-1,5-isoquinolinediamine]			107	35
Cc1ccc2c(Nc3ccc(OC(F)F)cc3)ncnc2c1Nc1ncccc1-c1ncnc2[nH]cnc12 [Example 76, N-4-(4-(difluoromethoxy)phenyl)-7-methyl-N-8-(3-(9H-purin-6-yl)-2-pyridinyl)-4,8-quinazolinediamine]	5	9		
Cc1ccc2c(Nc3ccc4c(c3)OC(F)(F)O4)nccc2c1Nc1ncccc1-c1ncnc2[nH]ncc12 [Example 72, N-1-(2,2-difluoro-1,3-benzodioxol-5-yl)-6-methyl-N-5-(3-(1H-pyrazolo[3,4-d]pyrimidin-4-yl)-2-pyridinyl)-1,5-isoquinolinediamine]	18	20		
COc1ccc(Nc2nccc3c(Nc4ncccc4-c4ncnc5[nH]ncc45)c(C)ccc23)cc1C(F)(F)F [Example 66, N5-(3-(1H-pyrazolo[3,4-d]pyrimidin-4-yl)pyridin-2-yl)-N1-(4-methoxy-3-(trifluoromethyl)phenyl)-6-methylisoquinoline-1,5-diamine]			28	25
Cc1ccc2c(Nc3ccc(Cl)cc3)nccc2c1Nc1ncccc1-c1ncnc2cc[nH]c12 [Example 62, N-1-(4-chlorophenyl)-6-methyl-N-5-(3-(5H-pyrrolo[3,2-d]pyrimidin-4-yl)-2-pyridinyl)-1,5-isoquinolinediamine]			282	20
Cc1ccc2c(Nc3ccc4c(c3)NC(=O)C4)nccc2c1Nc1ncccc1-c1ncnc2[nH]ccc12 [Example 50, 6-((6-methyl-5-((3-(7H-pyrrolo[2,3-d]pyrimidin-4-yl)-2-pyridinyl)amino)-1-isoquinolinyl)amino)-1,3-dihydro-2H-indol-2-one]			45	12
Cc1ccc2c(Nc3ccc4c(c3)C(F)(F)OC(F)(F)O4)nccc2c1Nc1ncccc1-c1ncnc2[nH]ccc12 [Example 54, 6-methyl-N-5-(3-(7H-pyrrolo[2,3-d]pyrimidin-4-yl)-2-pyridinyl)-N-1-(2,2,4,4-tetrafluoro-4H-1,3-benzodioxin-6-yl)-1,5-isoquinolinediamine]			99	205
Cc1ccc2c(Nc3ccc4c(c3)OC(F)(F)O4)nccc2c1Nc1ncccc1-c1ncnc2[nH]cnc12 [Example 59, N-1-(2,2-difluoro-1,3-benzodioxol-5-yl)-6-methyl-N-5-(3-(9H-purin-6-yl)-2-pyridinyl)-1,5-isoquinolinediamine]			6	6
Cc1ccc2c(Nc3ccc4c(c3)C(F)(F)C(=O)N4)nccc2c1Nc1ncccc1-c1ncnc2[nH]ccc12 [Example 46, 3,3-difluoro-5-((6-methyl-5-((3-(7H-pyrrolo[2,3-d]pyrimidin-4-yl)-2-pyridinyl)amino)-1-isoquinolinyl)amino)-1,3-dihydro-2H-indol-2-one]			25	15
Cc1ccc2c(Nc3ccc(Cl)cc3)nccc2c1Nc1ncccc1-c1ncnc2[nH]ccc12 [Example 42, N-1-(4-chlorophenyl)-6-methyl-N-5-(3-(7H-pyrrolo[2,3-d]pyrimidin-4-yl)-2-pyridinyl)-1,5-isoquinolinediamine]			5	3
Cc1ccc2c(Nc3ccc(Cl)cc3)nccc2c1Oc1ncccc1-c1ncnc2[nH]cnc12 [Example 68, N-(4-chlorophenyl)-6-methyl-5-((3-(9H-purin-6-yl)-2-pyridinyl)oxy)-1-isoquinolinamine]			1000	26
Cc1ccc2c(Nc3ccc(C#N)cc3)nccc2c1Nc1ncccc1-c1ncnc2cc[nH]c12 [Example 63, 4-((6-methyl-5-((3-(5H-pyrrolo[3,2-d]pyrimidin-4-yl)-2-pyridinyl)amino)-1-isoquinolinyl)amino)benzonitrile]			1000	171
Cc1ccc2c(Nc3ccc4c(c3)NC(=O)C4(C)C)nccc2c1Nc1ncccc1-c1ncnc2[nH]ccc12 [Example 51, 3,3-dimethyl-6-((6-methyl-5-((3-(7H-pyrrolo[2,3-d]pyrimidin-4-yl)-2-pyridinyl)amino)-1-isoquinolinyl)amino)-1,3-dihydro-2H-indol-2-one]			12	25
Cc1ccc2c(Nc3ccc4c(c3)OC(F)(F)O4)nccc2c1Nc1ncccc1-c1ncnc2cc[nH]c12 [Example 64, N-1-(2,2-difluoro-1,3-benzodioxol-5-yl)-6-methyl-N-5-(3-(5H-pyrrolo[3,2-d]pyrimidin-4-yl)-2-pyridinyl)-1,5-isoquinolinediamine]			111	302
Cc1ccc2c(Nc3ccc(C#N)cc3)nccc2c1Nc1ncccc1-c1ncnc2[nH]ccc12 [Example 40, 4-((6-methyl-5-((3-(7H-pyrrolo[2,3-d]pyrimidin-4-yl)-2-pyridinyl)amino)-1-isoquinolinyl)amino)benzonitrile]			23	3
